In article PMC9256669, “Monomethyl auristatin antibody and peptide drug conjugates for trimodal cancer chemo-radio-immunotherapy” (Nature Communications, 2022):
Where “and” joins values, the source holds several entries; their conditions need not be identical. Equal entries are not always repeated.

Experiments:
MOC2 tumors = test: Orthotopic tumor CyTOF analysis of immune infiltrate; assay type: in vivo, C57BL/6 mice; set-up: Immune cell quantification: M2 / CyTOF cell quantification, Immune cell quantification: CD4+ / CyTOF cell quantification, Immune cell quantification: M1 / CyTOF cell quantification, Immune cell quantification: M-MDSC / CyTOF cell quantification, Immune cell quantification: PMN-MDSC / CyTOF cell quantification, Immune cell quantification: Eosinophils / CyTOF cell quantification, Immune cell quantification: B cells: unit not given here
Protocol: 6-week-old C57BL/6 female mice were implanted with 50,000 MOC2 cells into the tongue. […] […] Tissues were incubated for 15 min at 37 °C and mechanically digested using the gentle MACs Octo Dissociator. Digested samples were then passed through a 100-µm strainer to acquire a single-cell. For viability staining, cells were washed in PBS and stained with Cell-ID Cisplatin (DVS Sciences) to a final concentration of 5 μM for 5 min at room temperature. Cisplatin was quenched when cells were washed and stained with the antibody cocktail. Antibodies were prepared in Maxpar cell staining buffer (PBS with 2 mM EDTA, 0.1% BSA, 0.05% NaN3) and incubated with cells for 15 min at room temperature. […] Antibodies (clone in parenthesis) used for CyTOF included B220 (RA3-6B2), CD117(2B8), CD11c (N418), CD25 (3C7), CD4 (RM4-5), CD45 (30-F11), CD8a (53-6.7), MHC-II (M5/114.15.2), NKP46 (29A1.4), TCRb (H57-597) from Fluidigm. Antibodies CD103 (2E7), CD115 (AFS98), CD11b (M1/70), CD19 (6D5), CD23 (B3B4), CD3 (145-2C11), CD64 (X54-5/7.1), F4/80 (BM8), FCeRI (Mar-1), FR4 (TH6), Ly6C (HK1.4), Ly6G (1A8), NK1.1 (PK136) from BioLegend and antibody Siglec-F (1RNM44N) from ebioscience. All antibodies were validated by the supplier and used at a 1:100 dilution. Cells were washed with staining buffer and pelleted. Before acquiring, cells were resuspended in 0.1× dilution of EQ Four Element Calibration beads (Fluidigm) and filtered through a 35 μm nylon mesh filter. Cells were acquired on a Helios CyTOF Mass Cytometer (Fluidigm) at an event rate of 200 events/s or less. Data was normalized using Matlab-based normalization software based on the EQ bead-removal. Prior to analysis, samples were subsampled to the lowest number of events and all counts were normalized to the same number of total events, 2324. To detect clusters of cells with a similar expression of surface markers in CyTOF, single cells were gated and clustered using unsupervised dimensionality reduction algorithm optimal t-Distributed Stochastic Neighbor Embedding (opt-SNE) algorithm in OMIQ data analysis software (www.omiq.ai) (530 iterations, Perplexity 30, and Theta 0.5)[51].
Supplementary Figure 8: CyTOF analysis of tumor immune infiltrates. a)
populations identified with opt-SNE. b) MOC2 murine tumors orthotopically implanted
Tumors harvested on day 11, analyzed by CyTOF,
provided in Source Data file.

B16 cells = test: Cell surface binding of Cy5-labeled ADCs by flow cytometry; assay type: cell-based, murine
Protocol: Murine cancer cells incubated on ice with Cy5 labeled ADC, bound Cy5 signal measured
by flow cytometry. Mean fluorescent intensity measured and subtracted from baseline fluorescence of saline incubated cells for each cell line. Data representative of 3

## CDX3379-MMAE: anti-HER3 antibody CDX3379 with 4 MMAE per antibody via MC-VC-PABC linker, labeled with Cy5
MOC2 tumors; MOC2 tumors, 2.5 nmoles drug on day 7, CyTOF on day 11, counts normalized to 2324 total events (percent of counts as in Supp. Fig. 8b), one value per tumor, untreated 0.26, 1.08, 0.73, 0.77
  Immune cell quantification: CD8+: 0.86 and 0.95
MOC2 tumors; MOC2 tumors, 2.5 nmoles drug on day 7, CyTOF on day 11, one value per tumor, untreated 0.52, 0.82, 0.90, 0.65
  Immune cell quantification: T regs: 1.64 and 1.12 and 1.68
MOC2 tumors; Tumor #1
  CyTOF cell quantification, Immune cell quantification: B cells: 1.59
  CyTOF cell quantification, Immune cell quantification: CD4+: 3.49
  CyTOF cell quantification, Immune cell quantification: Eosinophils: 19.75
  CyTOF cell quantification, Immune cell quantification: M1: 1.46
  CyTOF cell quantification, Immune cell quantification: M-MDSC: 5.98
  CyTOF cell quantification, Immune cell quantification: PMN-MDSC: 55.25
MOC2 tumors; Tumor #2
  CyTOF cell quantification, Immune cell quantification: B cells: 0.69
  CyTOF cell quantification, Immune cell quantification: CD4+: 3.53
  CyTOF cell quantification, Immune cell quantification: Eosinophils: 13.68
  CyTOF cell quantification, Immune cell quantification: M1: 0.69
  CyTOF cell quantification, Immune cell quantification: M-MDSC: 5.25
  CyTOF cell quantification, Immune cell quantification: PMN-MDSC: 63.34
MOC2 tumors; Tumor #3
  CyTOF cell quantification, Immune cell quantification: B cells: 1.94
  CyTOF cell quantification, Immune cell quantification: CD4+: 1.98
  CyTOF cell quantification, Immune cell quantification: Eosinophils: 11.88
  CyTOF cell quantification, Immune cell quantification: M1: 0.43
  CyTOF cell quantification, Immune cell quantification: M-MDSC: 4.09
  CyTOF cell quantification, Immune cell quantification: PMN-MDSC: 66.35
MOC2 tumors; Tumor #4
  CyTOF cell quantification, Immune cell quantification: B cells: 2.11
  CyTOF cell quantification, Immune cell quantification: CD4+: 4.39
  CyTOF cell quantification, Immune cell quantification: Eosinophils: 27.02
  CyTOF cell quantification, Immune cell quantification: M1: 0.47
  CyTOF cell quantification, Immune cell quantification: M-MDSC: 2.54
  CyTOF cell quantification, Immune cell quantification: PMN-MDSC: 51.89
MOC2 tumors; mouse, in vivo
  Immune cell quantification: M2: 1.20 and 2.19 and 1.25 and 1.42
MOC2 tumors; orthotopic MOC2 tumors, single 2.5 nmole i.v. injection
  tumor immune populations changed (CyTOF): regulatory T cells, dendritic cells and NK cells that were upregulated
B16 cells
  cell surface binding to B16 cells: dose response cell surface binding
